ChEMBL document CHEMBL4308869, “Towards lead compounds as anti-cancer agents via new phaeosphaeride A derivatives” (Bioorg Med Chem Lett, 2019)

Columns and labels:
A549 [1] = experiment: Cytotoxicity against human A549 cells after 72 hrs by MTT assay; assay type: functional, cell-based; settings: A549, 72 h
K562 = experiment: Cytotoxicity against human K562 cells after 72 hrs by MTT assay; assay type: functional, cell-based; settings: K562, 72 h
Jurkat = experiment: Cytotoxicity against human Jurkat cells after 72 hrs by MTT assay; assay type: functional, cell-based
HCT-116 [2] = experiment: Cytotoxicity against human HCT116 cells after 72 hrs by MTT assay; assay type: functional, cell-based; settings: HCT-116, 72 h
PC-3 [3] = experiment: Cytotoxicity against human PC3 cells after 72 hrs by MTT assay; assay type: functional, cell-based; settings: PC-3, 72 h
THP-1 = experiment: Cytotoxicity against human THP1 cells after 72 hrs by MTT assay; assay type: functional, cell-based; settings: THP-1, 72 h
HEF = experiment: Cytotoxicity against HEF after 72 hrs by MTT assay; assay type: cell-based; settings: Homo sapiens
RPMI-8226 = experiment: Cytotoxicity against human RPMI8226 cells after 72 hrs by MTT assay; assay type: functional, cell-based; settings: RPMI-8226, 72 h
MCF7 = experiment: Cytotoxicity against human MCF7 cells after 72 hrs by MTT assay; assay type: functional, cell-based; settings: MCF7, 72 h
NCI-H929 [4] = experiment: Cytotoxicity against human NCI-H929 cells after 72 hrs by MTT assay; assay type: functional, cell-based; settings: NCI-H929, 72 h
[5] = Therapeutic index, ratio of IC50 for HEF to IC50 for human HCT116 cells; assay type: toxicity; settings: HEF cells versus HCT116 cells, read-out: Ratio IC50
HCT-116 [6] = experiment: Potency index, ratio of PPA IC50 to test compound IC50 for human HCT116 cells; assay type: functional
PC-3 [7] = experiment: Potency index, ratio of PPA IC50 to test compound IC50 for human PC3 cells; assay type: functional
A549 [8] = experiment: Potency index, ratio of PPA IC50 to test compound IC50 for human A549 cells; assay type: functional
NCI-H929 [9] = experiment: Potency index, ratio of PPA IC50 to test compound IC50 for human NCI-H929 cells; assay type: functional
[10] = Therapeutic index, ratio of IC50 for HEF to IC50 for human NCI-H929 cells; assay type: toxicity; settings: HEF cells versus NCI-H929 cells, read-out: Ratio IC50
A549 [11] = experiment: Potency index, ratio of etoposide IC50 to test compound IC50 for human A549 cells; assay type: functional
NCI-H929 [12] = experiment: Potency index, ratio of etoposide IC50 to test compound IC50 for human NCI-H929 cells; assay type: functional

Structure (SMILES) | IC50 (A549 [1]) | IC50 (K562) | IC50 (Jurkat) | IC50 (HCT-116 [2]) | IC50 (PC-3 [3]) | IC50 (THP-1) | IC50 (HEF) | IC50 (RPMI-8226) | IC50 (MCF7) | IC50 (NCI-H929 [4]) | selectivity ratio [5] | Ratio IC50 (HCT-116 [6]) | Ratio IC50 (PC-3 [7]) | Ratio IC50 (A549 [8]) | Ratio IC50 (NCI-H929 [9]) | selectivity ratio [10] | Ratio IC50 (A549 [11]) | Ratio IC50 (NCI-H929 [12])
C=C1C2=C(C(=O)N1OC)[C@H](OC(=O)CSc1nc3ccccc3o1)[C@@](C)(O)[C@H](CCCCC)O2 | 20 µM | 4.5 µM | 2.6 µM | 4.9 µM | 5.8 µM | 2.3 µM | 9.3 µM | 5.1 µM | 3.9 µM | 3 µM |  |  |  |  |  |  |  | 
C=C1C2=C(C(=O)N1OC)[C@H](O)[C@@](C)(O)[C@H](CCCCC)O2 | 41 µM | 20 µM | 10 µM | 44 µM | 32 µM | 19 µM | 19 µM | 9.3 µM | 20 µM | 6.5 µM |  |  |  |  |  |  |  | 
C=C1C2=C(C(=O)N1OC)[C@H](OC(=O)CCl)[C@@](C)(O)[C@H](CCCCC)O2 | 20 µM | 7 µM | 9.6 µM | 2.4 µM | 2.4 µM | 11 µM | 9.1 µM | 9.7 µM | 17 µM | 3.3 µM | 3.8 | 20 |  |  |  |  |  | 
COc1cc([C@@H]2c3cc4c(cc3[C@@H](O[C@@H]3O[C@@H]5CO[C@@H](C)O[C@H]5[C@H](O)[C@H]3O)[C@H]3COC(=O)[C@H]23)OCO4)cc(OC)c1O [ETOPOSIDE] | 100 µM | 9.4 µM | 1.4 µM | 22 µM | 2.7 µM | 1 µM | > 100 µM | 4.8 µM | 9.6 µM | 0.9 µM |  |  |  |  |  |  |  | 
C=C1C2=C(C(=O)N1OC)[C@H](OC(=O)CCCCCl)[C@@](C)(O)[C@H](CCCCC)O2 | 12 µM | 8.5 µM | 4.2 µM | 11 µM | 9.2 µM | 4.6 µM | 11 µM | 4.3 µM | 5.4 µM | 2.5 µM |  |  |  |  |  |  |  | 
C=C1C2=C(C(=O)N1OC)[C@@H](F)[C@@](C)(O)[C@H](CCCCC)O2 | 42 µM | 18 µM | 15 µM | 31 µM | 12 µM | 19 µM | 37 µM | 16 µM | 37 µM | 3.9 µM |  |  | 3 |  |  |  |  | 
C=C1C2=C(C(=O)N1OC)[C@H](OC(=O)CSc1nc3ccccc3s1)[C@@](C)(O)[C@H](CCCCC)O2 | 5.9 µM | 4.3 µM | 2.3 µM | 4.7 µM | 5 µM | 1.6 µM | 11 µM | 2 µM | 6.3 µM | 0.59 µM |  |  |  | 7 | 11 | 18.6 | 16 | 1.5
C=C1C2=C(C(=O)N1OC)[C@H](OC(=O)CSc1nc3ccccc3[nH]1)[C@@](C)(O)[C@H](CCCCC)O2 | 19 µM | 9.3 µM | 8.9 µM | 8.2 µM | 6.4 µM | 5.3 µM | 11 µM | 4.3 µM | 16 µM | 2 µM |  |  |  |  |  |  |  | 
